Source: patent publication US20240208934A1, “ULK1/2 INHIBITORS AND THEIR USE THEREOF” (LifeArc, priority 2021, published 2024)
pIC50: −log10 of the molar value. Blank lines part the entries; values can stand above or below the molecule they belong to.

Test system: ULK
Assay: ULK radiometric assay (33P incorporation onto MBP substrate, glass fiber capture filter)
Details: ULK Biochemical activity; 20 uM ATP, 0.2 mg/mL MBP; averages of at least two independent experiments
Procedure: ULK activity was measured using a radiometric assay, to measure the incorporation of radiolabelled ^33P onto MBP substrate using a glass fiber capture filter method. Reaction conditions were 0.2 mg/mL MBP, 20 uM ATP (0.25 μCi/well), 50 mM Tris HCl, pH7.5, 10 mM MgCl2, 0.1% beta-mercaptoethanol, 0.1 mM EGTA, 0.01% BSA. Ten point Half log Compound dilution series were prepared in 100% DMSO and added to the reaction to give final assay concentration of 10% DMSO. Compounds were tested in duplicate and values normalized to 10% DMSO only controls. The data were fitted to a four parameter fit equation and the IC50 values shown are averages of at least two independent experiments.

Compound: FC(F)(F)c1cnc(Nc2ccc(N3CCOCC3)cc2)nc1NCc1cn[nH]c1 [Example 92, N2-(4-morpholinophenyl)-N4-(1H-pyrazol-4-ylmethyl)-5-(trifluoromethyl)pyrimidine-2,4-diamine]
- pIC50: ≤ 6.00

Compound: COc1cc2c(cc1Nc1ncc(C(F)(F)F)c(NC3CCN(C(C)=O)CC3)n1)CNCC2 [Example 68, 1-[4-[[2-[(6-Methoxy-1,2,3,4-tetrahydroisoquinolin-7-yl)amino]-5-(trifluoromethyl)pyrimidin-4-yl]amino]-1-piperidyl]ethanone]
- pIC50: ≤ 6.00

Compound: COc1ccc(N2CCNCC2)cc1Nc1ncc(C(F)(F)F)c(NCCCN2CCCCC2=O)n1 [Example 22, 4-[4-methoxy-3-[[4-[3-(2-oxo-1-piperidyl)propylamino]-5-(trifluoromethyl)pyrimidin-2-yl]amino]phenyl]piperazine]
- pIC50: ≤ 6.00

Compound: COc1cc2c(cc1Nc1ncc(C(F)(F)F)c(NCCCN3CCCCC3=O)n1)C(=O)N(C)C2 [Example 37, 5-Methoxy-2-methyl-6-[[4-[3-(2-oxo-1-piperidyl)propylamino]-5-(trifluoromethyl)pyrimidin-2-yl]amino]isoindolin-1-one]
- pIC50: ≤ 6.00

Compound: CN(C)CCCNc1nc(Nc2cccc(OC3CCN(C)CC3)c2)ncc1C1CC1 [Example 84, 5-Cyclopropyl-N4-(3-(dimethylamino)propyl)-N2-(3-(1-methylpiperidin-4-yloxy)phenyl)pyrimidine-2,4-diamine]
- pIC50: ≤ 6.00

Compound: COc1ccc(CN2CCOCC2)cc1Nc1ncc(C(F)(F)F)c(NCCCN2CCCCC2=O)n1 [Example 61, 1-[3-[[2-[2-Methoxy-5-(morpholinomethyl)anilino]-5-(trifluoromethyl)pyrimidin-4-yl]amino]propyl]piperidin-2-one]
- pIC50: ≤ 6.00

Compound: CN1CCc2cc(Nc3ncc(C4CC4)c(NCCCN4CCCC4)n3)ccc2C1 [Example 15, 5-Cyclopropyl-N2-(2-methyl-1,2,3,4-tetrahydroisoquinolin-6-yl)-N4-(3-(pyrrolidin-1-yl)propyl)pyrimidine-2,4-diamine]
- pIC50: ≤ 6.00

Compound: CN1CCC(O)(c2ccc(Nc3ncc(C4CC4)c(NCCCN4CCCCC4=O)n3)cc2)CC1 [Example 14, 1-(3-((5-Cyclopropyl-2-((4-(4-hydroxy-1-methylpiperidin-4-yl)phenyl)amino)pyrimidin-4-yl)amino)propyl)piperidin-2-one]
- pIC50: > 6.70

Compound: COc1cc2c(cc1Nc1ncc(C(F)(F)F)c(NCCCn3ccnc3)n1)CNCC2 [Example 70, N4-(3-imidazol-1-ylpropyl)-N2-(6-methoxy-1,2,3,4-tetrahydroisoquinolin-7-yl)-5-(trifluoromethyl)pyrimidine-2,4-diamine]
- pIC50: 6.00 to 6.70

Compound: CCN(CC)C(=O)C1CCCN(c2nc(Nc3cc4c(cc3OC)CCNC4)ncc2C(F)(F)F)C1 (stereo not shown) [Example 69, N,N-diethyl-1-[2-[(6-methoxy-1,2,3,4-tetrahydroisoquinolin-7-yl)amino]-5-(trifluoromethyl)pyrimidin-4-yl]piperidine-3-carboxamide]
- pIC50: ≤ 6.00

Compound: O=C1CCCCN1CCCNc1nc(Nc2cc(OC3CCNCC3)ccc2Cl)ncc1C(F)(F)F [Example 44, 1-[3-[[2-[2-Chloro-5-(4-piperidyloxy)anilino]-5-(trifluoromethyl)pyrimidin-4-yl]amino]propyl]piperidin-2-one]
- pIC50: 6.00 to 6.70

Results, then the molecule that gave them:

- pIC50: > 6.70
Compound: CN1CCc2cc(Nc3ncc(C4CC4)c(NC4CC4)n3)ccc2C1 [Example 17, N4,5-dicyclopropyl-N2-(2-methyl-1,2,3,4-tetrahydroisoquinolin-6-yl)pyrimidine-2,4-diamine]

- pIC50: > 6.70
Compound: COc1cc2c(cc1Nc1ncc(C(F)(F)F)c(NCCCN3CCCCC3=O)n1)CCNC2 [Example 4, 1-(3-((2-((7-Methoxy-1,2,3,4-tetrahydroisoquinolin-6-yl)amino)-5-(trifluoromethyl)pyrimidin-4-yl)amino)propyl)piperidin-2-one]

- pIC50: > 6.70
Compound: CCOc1cc2c(cc1Nc1ncc(C(F)(F)F)c(NCCCN3CCCCC3=O)n1)CNCC2 [Example 21, 1-[3-[[2-[(6-Ethoxy-1,2,3,4-tetrahydroisoquinolin-7-yl)amino]-5-(trifluoromethyl)pyrimidin-4-yl]amino]propyl]piperidin-2-one]

- pIC50: > 6.70
Compound: FC(F)(F)c1cnc(Nc2cnn(C3CCNC3)c2)nc1NCc1cc[nH]n1 (stereo not shown) [Example 85, N4-(1H-pyrazol-3-ylmethyl)-N2-(1-pyrrolidin-3-ylpyrazol-4-yl)-5-(trifluoromethyl)pyrimidine-2,4-diamine]

- pIC50: 6.00 to 6.70
Compound: CN1CCc2cc(Nc3ncc(C(F)(F)F)c(NCCCN4CCCC4)n3)ccc2C1 [Example 6, N2-(2-methyl-1,2,3,4-tetrahydroisoquinolin-6-yl)-N4-(3-(pyrrolidin-1-yl)propyl)-5-(trifluoromethyl)pyrimidine-2,4-diamine]

- pIC50: > 6.70
Compound: CN1CCc2cc(Nc3ncc(C4CC4)c(NCCCN4CCCC4=O)n3)ccc2C1 [Example 9, 1-[3-[[5-cyclopropyl-2-[(2-methyl-3,4-dihydro-1H-isoquinolin-6-yl)amino]pyrimidin-4-yl]amino]propyl]pyrrolidin-2-one]

- pIC50: > 6.70
Compound: O=C1CCCCN1CCCNc1nc(Nc2cc(CO)ccc2Cl)ncc1C(F)(F)F [Example 26, 1-[3-[[2-[2-Chloro-5-(hydroxymethyl)anilino]-5-(trifluoromethyl)pyrimidin-4-yl]amino]propyl]piperidin-2-one]

- pIC50: > 6.70
Compound: CN(C)Cc1cccc(Nc2ncc(C3CC3)c(NCCCN3CCCCC3=O)n2)c1 [Example 13, 1-(3-(5-Cyclopropyl-2-(3-((dimethylamino)methyl)phenylamino)pyrimidin-4-ylamino)propyl) piperidin-2-one]

- pIC50: > 6.70
Compound: O=C1CCCN1CCCNc1nc(Nc2ccc3c(c2)CCNC3)ncc1C(F)(F)F [Example 66, 1-[3-[[2-(1,2,3,4-tetrahydroisoquinolin-6-ylamino)-5-(trifluoromethyl)pyrimidin-4-yl]amino]propyl]pyrrolidin-2-one]

- pIC50: > 6.70
Compound: O=C1CCCCN1CCCNc1nc(Nc2ccc(N3CCOCC3)cc2Cl)ncc1C(F)(F)F [Example 54, 1-[3-[[2-(2-Chloro-4-morpholino-anilino)-5-(trifluoromethyl)pyrimidin-4-yl]amino]propyl]piperidin-2-one]

- pIC50: 6.00 to 6.70
Compound: COc1cc2c(cc1Nc1ncc(C(F)(F)F)c(NCCC(=O)N3CCOCC3)n1)CNCC2 [Example 79, 3-[[2-[(6-Methoxy-1,2,3,4-tetrahydroisoquinolin-7-yl)amino]-5-(trifluoromethyl)pyrimidin-4-yl]amino]-1-morpholino-propan-1-one]

- pIC50: > 6.70
Compound: FC(F)(F)c1cnc(Nc2ccc3c(c2)CCNC3)nc1NCC1CNCCO1 (stereo not shown) [Example 63, N4-(morpholin-2-ylmethyl)-N2-(1,2,3,4-tetrahydroisoquinolin-6-yl)-5-(trifluoromethyl)pyrimidine-2,4-diamine]

- pIC50: > 6.70
Compound: CNCc1ccc(OC)c(Nc2ncc(C(F)(F)F)c(NCCCN3CCCCC3=O)n2)c1 [Example 60, 1-[3-[[2-[2-Methoxy-5-(methylaminomethyl)anilino]-5-(trifluoromethyl)pyrimidin-4-yl]amino]propyl]piperidin-2-one]

- pIC50: > 6.70
Compound: O=C1CCCCN1CCCNc1nc(Nc2ccc3c(c2)CCNC3)ncc1C(F)(F)F [Example 19, 1-[3-[[2-(1,2,3,4-Tetrahydroisoquinolin-6-ylamino)-5-(trifluoromethyl)pyrimidin-4-yl]amino]propyl]piperidin-2-one]
